In PubChem BioAssay (NCI):
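Cultured in 96-well plates, cells were exposed to test compound for 48 hours across five concentrations. GI50 marks 50% less growth. At the TGI there is no net growth.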

Assays:
Test in all cases: NCI tumour cell line growth inhibition, 48 h
[1] = tested on: SW-620 colon
[2] = tested on: LOX IMVI melanoma
[3] = tested on: SNB-19 CNS
[4] = tested on: HT29 colon
[5] = tested on: CCRF-CEM leukemia
[6] = tested on: RXF 393 renal
[7] = tested on: NCI/ADR-RES ovarian
[8] = tested on: T-47D breast
[9] = tested on: RPMI-8226 leukemia
[10] = tested on: EKVX NSCLC
[11] = tested on: HCC-2998 colon
[12] = tested on: A549 NSCLC
[13] = tested on: BT-549 breast
[14] = tested on: NCI-H460 lung
[15] = tested on: 786-0 renal
[16] = tested on: DU-145 prostate
[17] = tested on: UO-31 renal
[18] = tested on: PC-3 prostate
[19] = tested on: OVCAR-8 ovarian
[20] = tested on: MCF7 breast
[21] = tested on: M14 melanoma
[22] = tested on: A498 renal
[23] = tested on: SNB-75 CNS
[24] = tested on: OVCAR-5 ovarian
[25] = tested on: K-562 leukemia
[26] = tested on: HS 578T breast
[27] = tested on: IGROV1 ovarian
[28] = tested on: OVCAR-4 ovarian
[29] = tested on: MOLT-4 leukemia
[30] = tested on: COLO 205 colon
[31] = tested on: ACHN renal
[32] = tested on: OVCAR-3 ovarian
[33] = tested on: NCI-H522 lung
[34] = tested on: U251 CNS
[35] = tested on: SN12C renal
[36] = tested on: HOP-62 NSCLC
[37] = tested on: MDA-MB-231 breast
[38] = tested on: SK-MEL-5 melanoma
[39] = tested on: SR leukemia
[40] = tested on: NCI-H226 lung
[41] = tested on: CAKI-1 renal
[42] = tested on: HCT-116 colon
[43] = tested on: TK-10 renal
[44] = tested on: MALME-3M melanoma
[45] = tested on: UACC-62 melanoma
[46] = tested on: SK-OV-3 ovarian
[47] = tested on: HL-60(TB) leukemia
[48] = tested on: HOP-92 NSCLC
[49] = tested on: HCT-15 colon
[50] = tested on: SK-MEL-2 melanoma
[51] = tested on: SF-295 CNS
[52] = tested on: KM12 colon
[53] = tested on: NCI-H23 lung
[54] = tested on: SF-268 CNS
[55] = tested on: SF-539 CNS
[56] = tested on: SK-MEL-28 melanoma

COc1ccc2cc(-c3ccoc(=O)c3-c3cc(OC)c(OC)c(OC)c3)ccc2c1 was tested, and the GI50 [1] was 45.5 nM, the TGI [1] was greater than 100000 nM and the GI50 [2] was 1150 nM. It also gave a TGI [2] greater than 100000 nM, a GI50 [3] of 125 nM and a TGI [3] greater than 100000 nM. The GI50 [4] was 38.3 nM, the TGI [4] was 22500 nM and the GI50 [5] was 84.2 nM. It also gave a TGI [5] greater than 100000 nM, a GI50 [6] of 28 nM and a TGI [6] greater than 100000 nM. It also gave a GI50 [7] of 52.8 nM, a TGI [7] greater than 100000 nM and a GI50 [8] of 77.2 nM. The TGI [8] was greater than 100000 nM, the GI50 [9] was 218 nM and the TGI [9] was 13400 nM. For the same compound, the GI50 [10] was 566 nM, the TGI [10] was greater than 100000 nM and the GI50 [11] was 74.4 nM. It also gave a TGI [11] of 426 nM, a GI50 [12] of 77.5 nM and a TGI [12] greater than 100000 nM. For the same compound, the GI50 [13] was 232 nM, the TGI [13] was greater than 100000 nM and the GI50 [14] was 52.6 nM. The TGI [14] was greater than 32000 nM, the GI50 [15] was 201 nM and the TGI [15] was greater than 100000 nM. For the same compound, the GI50 [16] was 188 nM, the TGI [16] was greater than 100000 nM and the GI50 [17] was 100 nM. The TGI [17] was greater than 100000 nM, the GI50 [18] was 52.1 nM and the TGI [18] was greater than 100000 nM. It also gave a GI50 [19] of 334 nM, a TGI [19] greater than 100000 nM and a GI50 [20] of 32.2 nM. It also gave a TGI [20] greater than 57500 nM, a GI50 [21] of 68.1 nM and a TGI [21] greater than 100000 nM. For the same compound, the GI50 [22] was 72.3 nM, the GI50 [23] was 97.7 nM and the TGI [23] was greater than 100000 nM. It also gave a GI50 [24] of 369 nM, a TGI [24] greater than 100000 nM and a GI50 [25] of 34.6 nM. For the same compound, the TGI [25] was greater than 39400 nM, the GI50 [26] was 134 nM and the TGI [26] was greater than 100000 nM. The GI50 [27] was 33.9 nM, the TGI [27] was greater than 20600 nM and the GI50 [28] was 1160 nM. For the same compound, the TGI [28] was greater than 100000 nM, the GI50 [29] was 161 nM and the TGI [29] was greater than 51100 nM. The GI50 [30] was 44.9 nM, the TGI [30] was 212 nM and the GI50 [31] was 1480 nM. For the same compound, the TGI [31] was greater than 100000 nM, the GI50 [32] was 31.6 nM and the TGI [32] was greater than 100000 nM. The GI50 [33] was 20.6 nM, the TGI [33] was 113 nM and the GI50 [34] was 112 nM. For the same compound, the TGI [34] was greater than 100000 nM, the GI50 [35] was 639 nM and the TGI [35] was greater than 100000 nM. For the same compound, the GI50 [36] was 270 nM, the TGI [36] was greater than 100000 nM and the GI50 [37] was 148 nM. It also gave a TGI [37] greater than 100000 nM, a GI50 [38] of 37.9 nM and a TGI [38] of 4100 nM. For the same compound, the GI50 [39] was 30.1 nM, the GI50 [40] was 6690 nM and the TGI [40] was greater than 100000 nM. For the same compound, the GI50 [41] was 98.6 nM, the TGI [41] was greater than 100000 nM and the GI50 [42] was 44 nM. It also gave a TGI [43] greater than 100000 nM, a GI50 [44] greater than 100000 nM and a TGI [44] greater than 100000 nM. For the same compound, the GI50 [45] was 53.6 nM, the TGI [45] was greater than 100000 nM and the GI50 [46] was 389 nM. It also gave a TGI [46] greater than 100000 nM, a GI50 [47] of 35.3 nM and a TGI [47] of 793 nM. It also gave a GI50 [48] of 2490 nM, a TGI [48] greater than 100000 nM and a GI50 [49] of 59 nM. For the same compound, the TGI [49] was greater than 100000 nM, the GI50 [50] was 75.2 nM and the TGI [50] was greater than 100000 nM. For the same compound, the GI50 [51] was 45 nM, the GI50 [52] was 23.8 nM and the GI50 [53] was 141 nM. The GI50 [54] was 626 nM, the TGI [54] was greater than 100000 nM and the GI50 [55] was 266 nM. For the same compound, the TGI [55] was greater than 100000 nM, the GI50 [56] was 683 nM and the TGI [56] was greater than 100000 nM.
